Reference: US20260224732A1, “BIOPOLYMER PROTECTED OLIGONUCLEOTIDES FOR DRUG DELIVERY” (THE ROYAL INSTITUTION FOR THE ADVANCEMENT OF LEARNING / …, priority 2023, published 2026)
Like-named read-outs stand apart in the source and are kept apart here.

Legend:
[1] = Rheological measurements of dA/CA hydrogels; format: physicochemical; details: for storage modulus (G′): same wt % (dA15 1400 μM, dA30 700 μM, dA50 420 μM), Mag buffer, 25° C.; for G′ window: dA50 420 μM, dA30C8 2 mM, CA 60 mM, CAC2NH2 90 mM
Experimental: Hydrogel Assembly and Rheology: Unless otherwise stated, the preparation of gels follows this procedure. The appropriate amounts of strands are evaporated from their stocks on a speedvaccuum in a 300 μL Eppendorf. For the dA30-dsDNAn hydrogels, the concentration is half strand1 and half strand2. Once dry, 50 μL or 100 μL of a buffer containing the desired concentration of CA and/or CAC2NH2 is added to the Eppendorf. […] Both buffers give similar gels rheologically (FIG. 40). For concentrations of CA exceeding 20 mM or CAC2NH2 30 mM, the excess CA-R is dried with the strands from a water/CA 20 mM solution adjusted to pH 6. The dried DNA is mixed and sonicated to help it dissolve, forming instantly a cloudy filamentous gel. To homogenize the gels, the Eppendorf is heated to 85° C. for 5 minutes a Bio-Rad T100TM thermocycler, then cooled down to 20° C. and kept at that temperature overnight, unless otherwise noted. They are measured the next day. It is important to properly homogenize the gels, mixing them at high temp if needed, and to quickly cool them, or they may form more localized aggregates with varying rheology. Due to the high melting temperature of dA30C8 2 mM, CA 60 mM, CAC2NH2 90 mM, the gel was prepared by heating at 100° C. for 20 min (sealed to prevent water escaping), before being brought to 20° C. Clear monophasic gels are formed from this process.
Rheological measurements: Rheological properties were measured using stress-controlled rheometer (MCR 302, Anton Paar) using a 15 mm diameter cone plate at 0.2 mm (50 μL gels) or 0.5 mm (100 μL gels) gap distance. Samples were taken directly from the Eppendorf in which they were formed by prying it open with a razor blade and placed under the cone plate. The temperature was maintained at 25° C. for all measurements using a Peltier temperature control unit unless otherwise noted. Due to the small thickness of the samples, no temperature gradients are expected. To avoid drying, a solvent trap was used in all the measurements. Amplitude sweeps were first conducted to assess the linear viscoelastic range of the samples by slowly increasing the strain from 0.01% to 100%. […] Oscillatory frequency sweep tests were measured between 0.1 Hz and 100 Hz at 0.1% strain. Strain-cycle experiment was done by cycling the gel between 0.1% and 100% strains at 1 Hz. To understand the shear-thinning behavior of the samples, the viscosity was measured at increasing strain rate ranging from (0.1-100 Hz).
• A) Strand complement. Two 50 μL dA30C4 700 μM hydrogel in Mag buffer with CA 20 mM samples were prepared, as well as a 10 μL sample of dG4T30 3 mM (1.5 eq.) in the same buffer and CA concentration. A sample of dA30C4 hydrogel was measured independently. The dG4T30 sample was added to the second dA30C4 sample and vortexed in its Eppendorf for 2 minutes before being measured. • B) Melamine. A 50 μL hydrogel composed of dA30-dsDNA13 700 μM and CA 20 mM in Mag buffer was measured in the rheometer. The plate of the rheometer was lifted and 50 μL of solution of 20 mM melamine in Mag buffer at pH6 was added to it. Instant white precipitate formed and was encouraged by gently mixing with a spatula for 30s before the resulting liquid with solid precipitate was measured rheologically. • C) pH. A volume of 180 μL of dA30C4v2 700 μM CA 20 mM hydrogel in Mag buffer was prepared. The initial pH was measured at 5.71 with a surface pH meter (Mettler Toledo). An approximate volume of 50 μL was separated and measured rheologically. To the remaining 130 μL, 2.70 μL of NaOH 5.04M was added and stirred through vortexing. The resulting pH of the liquid was measured at 7.91. 50 μL of it were measured rheologically. To the remaining 80 μL, 1.5 μL of HCl 5.04M was added by aliquot and mixed through vortexing, forming a gel with a pH of 5.66 after 2 minutes. To note that in general, it is important to mix vigorously with the addition of the acid, or localized gels will form rather than a homogeneous one. […]

[2] = system: Epithelial cells; experiment: Cellular viability with CA and CA-R mixes; format: cell-based; details: after 5 days, pH 6; CA 20 mM alone or CA 20 mM plus the named CA-R (CAC2NH2 30 mM, CAC6NH2 12 mM)
Description: Magnification of 10×, scale bar=100 μm, dapi in blue and factin in red.
Cellular viability. To be applicable in biological context, the toxicity of the CA and the combined CA-R mixes were verified. Epithelial cells were cultivated in media supplemented with various CA-R mixes and acidified at pH 6. Both the cellular viability and morphology was studied over a 5 day period.

[3] = format: in vitro ADME, bovine; details: pH 6
Experimental: (§1) The sample then was stored at −20° C.
(§2) Results. The PAGE analyses were performed for both CA concentrations, and imaged side-by-side (FIG. 2). The strongest resulting band intensities were normalised to the t=0 data-point, plotted as a function of time (See Supplemental), and then fitted to the first-order kinetics equations (Equations 1, 2, and FIG. 3). The rate constants were calculated from these graphs (using Equation 4), and tabulated according to strand and CA concentration (Table 2).
(§3) Equation 4. The Equation 2, written as relationship between the band intensities (I at some t, and at t=0), and the rate constant, k.

[4] = Serum stability assay in L15 media with FBS, denaturing PAGE band intensity; format: in vitro ADME, bovine; details: pH 6
Experimental: as §1, §2
Equation 1. First-order rate law for the variation of the concentration of a substance (in this case, nucleic acid, “NA”) with time, where [NA]t is the concentration of NA at a given time t, and [NA]0 is the initial concentration.
as §3

dA50: DNA strand of 50 adenines, SEQ ID NO 28 (DNA AAAAAAAAAAAAAAAAAAAAAAAAAAAAAAAAAAAAAAAAAAAAAAAAAA; DNA, backbone not given here)
storage modulus (G′) ([1]; 1 Hz, CA 20 mM): 4±2×10^1 Pa
G′ window ([1]; CA 20 mM): ~10^1 Pa

NCCn1c(=O)[nH]c(=O)[nH]c1=O [CAC2NH2]
viability [2]: 82±5%

rA15R7: RNA strand GCTACTGAAAAAAAAAAAAAAA, SEQ ID NO 2 in Table 1; Table 5 swaps the name with R7rA15 (GCUACUGAAAAAAAAAAAAAAA; chemistry not fully specified)
k 0 mM [CA] [3]: (1.25 ± 0.2) × 10^−1 h^−1
k 20 mM [CA] [3]: (2.25 ± 0.2) × 10^−3 h^−1
k 0 mM [CA] [4]: (4.67) × 10^−2 h^−1
k 20 mM [CA] [4]: (4.16) × 10^−3 h^−1

dA30C8: DNA strand, 30 adenines then CCCCCCCC, SEQ ID NO 8 (DNA AAAAAAAAAAAAAAAAAAAAAAAAAAAAAACCCCCCCC; DNA, backbone not given here)
k 0 mM [CA] [3]: (2.29 ± 0.5) × 10^−2 h^−1
k 20 mM [CA] [3]: (4.87 ± 0.7) × 10^−3 h^−1
moduli at 37° C. ([1]; 1.7 wt % gel, room temperature to 37° C.): virtually unchanged
G′ ([1]; 1.7 wt %, mixture of CA and CAC2NH2): ~10^4 Pa
G′ ([1]; 4.7 wt % (CA-R included), 1 Hz): 8±1×10^4 Pa
G′ ([1]; 4.7 wt % (CA-R included), 10 Hz): 1±0.1×10^5 Pa
storage modulus at 85° C. ([1]; 4.7 wt % gel, 85° C.): above 10^4 Pa
G′ window ([1]; CA 20 mM): ~10^5 Pa
gel state at 100° C. ([1]; qualitatively observed): staying a gel

rA15: RNA strand AAAAAAAAAAAAAAA, SEQ ID NO 1 (RNA, backbone not given here)
k 0 mM [CA] [3]: (2.43 ± 0.3) × 10^−2 h^−1
k 20 mM [CA] [3]: (2.42 ± 0.2) × 10^−3 h^−1
k 0 mM [CA] [4]: (6.70) × 10^−2 h^−1
k 20 mM [CA] [4]: (1.07) × 10^−2 h^−1

Control random: DNA GATGAGGTACCCAGAAGCCGAACTGGGCCAGACAACCCGGCGCTAAC, SEQ ID NO 11, no polyA (DNA, backbone not given here) [reference compound]
k 0 mM [CA] [3]: (3.86 ± 0.2) × 10^−2 h^−1
k 20 mM [CA] [3]: (3.48 ± 0.8) × 10^−2 h^−1

NCCCCCCn1c(=O)[nH]c(=O)[nH]c1=O [CAC6NH2]
viability [2]: 43±2%

dA30C4-v2′: DNA strand, 30 adenines then CCCCGTCGCTCTCTCAAGTAGAAT, SEQ ID NO 10 (DNA AAAAAAAAAAAAAAAAAAAAAAAAAAAAAACCCCGTCGCTCTCTCAAGTAGAAT; DNA, backbone not given here)
k 0 mM [CA] [3]: (1.33 ± 0.1) × 10^−2 h^−1
k 20 mM [CA] [3]: (3.46 ± 0.5) × 10^−3 h^−1

dA15: DNA strand of 15 adenines, SEQ ID NO 5 (DNA AAAAAAAAAAAAAAA; DNA, backbone not given here)
storage modulus (G′) ([1]; 1 Hz, CA 20 mM): 1.3±0.8×10^1 Pa
storage modulus ([1]; pure dA15 hydrogel with CA): ~10^1 Pa
storage modulus ([1]; pure dA15 hydrogel with CAC2NH2 instead of CA, 0.7 wt % (including CAC2NH2)): ~10^3 Pa

dA30C4: DNA strand, 30 adenines then CCCC, SEQ ID NO 9 (DNA AAAAAAAAAAAAAAAAAAAAAAAAAAAAAACCCC; DNA, backbone not given here)
k 0 mM [CA] [4]: (5.83) × 10^−3 h^−1
k 20 mM [CA] [4]: (−2.08) × 10^−3 * h^−1
G′ and G″ after addition of the complementary strand dG4T30 ([1]; dA30C4 700 μM, CA 20 mM, dG4T30 1.5 eq.): large loss of G′ and G″

R7rA15: RNA strand AAAAAAAAAAAAAAAGTCATCG, SEQ ID NO 3 in Table 1; Table 5 swaps the name with rA15R7 (AAAAAAAAAAAAAAAGUCAUCG; chemistry not fully specified) [Strand R7rA15]
k 0 mM [CA] [3]: (2.80 ± 0.7) × 10^−2 h^−1
k 20 mM [CA] [3]: (7.47 ± 0.4) × 10^−3 h^−1
k 0 mM [CA] [4]: (3.73) × 10^−2 h^−1
k 20 mM [CA] [4]: (2.59) × 10^−3 h^−1

B1: dA30C4v2: hydrogel strands: 30 adenine followed by 20 complementary base pairs as overhang; strand1 and strand2, SEQ ID NO 33, 34 (nucleic acid)
chain 1: AAAAAAAAAAAAAAAAAAAAAAAAAAAAAACCCCATTCTACTTGAGAGAGCGAC
chain 2: AAAAAAAAAAAAAAAAAAAAAAAAAAAAAACCCCGTCGCTCTCTCAAGTAGAAT
modifications: DNA, backbone not given here; hydrogel-forming strands with complementary overhangs
storage modulus G′ (1 Hz) ([1]; 700 μM strands (1.4 wt % for dA30C4v2), CA 20 mM): 4±0.8×10^3 Pa
G′ ([1]; 4 wt % (CA included)): 3×10^4 Pa

B2: dA30-dsDNA13: half strand1 and half strand2, SEQ ID NO 31 and 32, double-stranded DNA crosslink (nucleic acid)
chain 1: AAAAAAAAAAAAAAAAAAAAAAAAAAAAAACTAGAAGTGTCCAGTTA
chain 2: AAAAAAAAAAAAAAAAAAAAAAAAAAAAAATTACTAACTGGACACTT
modifications: DNA, backbone not given here; crosslinked double-stranded DNA
yield point of the gel (G″ overtakes G′) ([1]; 700 μM): Around 1 % shear strain
G′ and G″ after adding stoichiometric amount of melamine ([1]; 700 μM, CA 20 mM, melamine 20 mM): greatly decreases G′ and G″
self-healing, return to initial modulus ([1]; cycling low shear (0.1%) and high shear (100%)): under 1 min
